Literature values as cited in paper PMC7584476, “Safety and efficacy of BAY1436032 in IDH1-mutant AML: phase I study results” (Leukemia, 2020).
Like-named read-outs stand apart in the source and are kept apart here.

What was measured:
primary AML samples = settings: cited from earlier work
mIDH1 AML = tested on: mIDH1 AML; set-up: method as in PMID 29860938; settings: cited from earlier work

Row | Compound | Number of colony-forming cells (primary AML samples) | Half-life (mIDH1 AML) [h] | ≥grade 3 TEAE IDH DS (mIDH1 AML) [%] | ≥grade 3 TEAE QT prolongation (mIDH1 AML) [%] | Median overall survival (mIDH1 AML; similar populations, 95% CI 6.7–10.2) [months] | Number of colony-forming cells (primary AML samples; ref MH, unpublished)
1 | CC(C)(O)CNc1nc(Nc2ccnc(C(F)(F)F)c2)nc(-c2cccc(C(F)(F)F)n2)n1 [enasidenib] | increased | – | – | – | – | –
2 | N#Cc1ccnc(N2C(=O)CC[C@H]2C(=O)N(c2cncc(F)c2)[C@H](C(=O)NC2CC(F)(F)C2)c2ccccc2Cl)c1 [ivosidenib] | – | 72 to 138 | 4 | 8 | 8.8 | increased
